Counter-ions that a name gives are not always drawn. Like-named read-outs stand apart in the source and are kept apart here.
Legend:
[1] = system: vancomycin resistant enterococci (VRE) E. faecium; experiment: Broth microdilution MIC/MBC, VRE E. faecium; assay type: cell-based
[2] = system: established methicillin-resistant S. epidermidis biofilm (ATCC 35984, NRS 101); experiment: Microtiter dish biofilm eradication assay (crystal violet); assay type: cell-based, Staphylococcus epidermidis; details: high concentrations (up to 8 X MIC), 24 h
Procedure: We used S. epidermidis ATCC 35984 (NRS 101), a high-slime producer isolated in septicemic patients, with colonized intravascular catheters from Tennessee, USA [10]. This strain is a multi-drug resistant strain, showing resistance to methicillin, erythromycin, kanamycin, gentamicin, clindamycin and trimethoprim. Briefly, an overnight culture of biofilm—producing MRSE was diluted 1:100 in a fresh medium containing 1% glucose in a 96-well tissue-culture treated plate. Bacteria were incubated at 37°C for 24 h to permit the formation of an adherent biofilm. The medium was removed and the biofilm was washed with PBS. Antibacterial drugs (vancomycin and linezolid) and rhodanine 2, at indicated concentration, were added and incubated again at 37°C for 24 h. Plates were washed again and biofilms were stained with 0.1% (wt/vol) crystal violet. Plates were washed with PBS, air-dried and biofilm mass was dissolved using 95% ethanol. The intensity of crystal violet was measured using a micro plate reader (SpectraMax i3x; Molecular Devices, Sunnyvale, CA, USA). Data are presented as the percent biofilm mass reduction in treated groups in relation to untreated wells.

[3] = system: vancomycin resistant enterococci (VRE) E. faecalis; experiment: Broth microdilution MIC/MBC, VRE E. faecalis; assay type: cell-based
Mycobacterium smegmatis = experiment: Broth microdilution MIC/MBC, Mycobacterium smegmatis; assay type: cell-based; details: Mycolicibacterium smegmatis, ATCC14468
B. licheniformis = experiment: Broth microdilution MIC/MBC, B. licheniformis; assay type: cell-based; details: Bacillus licheniformis
B. cereus = experiment: Broth microdilution MIC/MBC, B. cereus; assay type: cell-based
Source text: The broth microdilution technique was used, followed by subculturing on agar plates that were rhodanine—free.

[4] = system: vancomycin resistant enterococci (VRE); experiment: Broth microdilution MIC50/MIC90, VRE panel; assay type: cell-based; details: Enterococcus, VRE
[5] = system: Vancomycin Resistant Staphylococcus aureus (VRSA); experiment: Broth microdilution MIC/MBC, VRSA; assay type: cell-based; details: VRSA
MRSA USA300 = experiment: MIC against MRSA USA300 with and without 4% human serum albumin; assay type: cell-based, Staphylococcus aureus; details: Staphylococcus aureus, read-out: MIC against MRSA USA300
Procedure: The minimum inhibitory concentration (MIC) and the minimum bactericidal concentration (MBC) of rhodanine compounds 1 to 7 were determined against various Gram-positive and Gram-negative pathogens (S1 Table) following the guidelines of the Clinical and Laboratory Standards Institute (CLSI)[4]. The broth microdilution technique was used, followed by subculturing on agar plates that were rhodanine—free. […] The MICs reported represent the lowest concentration of each compound necessary to inhibit bacterial growth and the MBCs represent the lowest concentration required to reduce the initial bacterial inoculum by ≥ 99.9%.
The antimicrobial activity of rhodanine compounds in the presence of 4% human serum albumin (HSA) was tested against MRSA USA300. The MICs of rhodanine compounds and control antibiotics (vancomycin and daptomycin) were tested as described in the methods above using tryptic soy broth spiked with 4% HSA. We also synthesized and tested three more compounds, ethyl ester and amide of rhodanine 2 (Rh 8 and Rh 10, respectively) and ethyl ester of rhodanine 3 (Rh 9) to determine the influence of a carboxyl group modification toward anti-MRSA activity and human serum albumin (HSA) binding.

Bacillus Strains = experiment: Broth microdilution MIC50/MIC90 and MIC range, Bacillus strains panel; assay type: cell-based, Bacillus spp.; details: 10 Bacillus strains
Source text: The broth microdilution technique was used, followed by subculturing on agar plates that were rhodanine—free. […] The MICs reported represent the lowest concentration of each compound necessary to inhibit bacterial growth and the MBCs represent the lowest concentration required to reduce the initial bacterial inoculum by ≥ 99.9%.

Clostridium difficile = experiment: MIC against Clostridium difficile, anaerobic broth dilution; assay type: cell-based; details: Clostridioides difficile
Procedure: Clinical isolates of C. difficile were cultured on anaerobic blood agar and incubated anaerobically using container gas pack system at 37° C for 48 hours. The colonies were then suspended in pre-reduced phosphate buffered saline (PBS) and adjusted to 0.5 McFarland standard then diluted 1:300 in pre-reduced Supplemented Brain Heart Infusion broth. The bacterial suspension was then transferred to each well of 96-well plates, the drugs were added to the first row of wells in the required concentrations and serially diluted along the plates. The plates were incubated again anaerobically using container gas pack system at 37° C for 48 hours. The (MIC) recorded was the lowest concentration of the drug showing no visible growth of the bacteria.

CN[C@H](CC(C)C)C(=O)N[C@H]1C(=O)N[C@@H](CC(N)=O)C(=O)N[C@H]2C(=O)N[C@H]3C(=O)N[C@H](C(=O)N[C@H](C(=O)O)c4cc(O)cc(O)c4-c4cc3ccc4O)[C@H](O)c3ccc(c(Cl)c3)Oc3cc2cc(c3O[C@@H]2O[C@H](CO)[C@@H](O)[C@H](O)[C@H]2O[C@H]2C[C@](C)(N)[C@H](O)[C@H](C)O2)Oc2ccc(cc2Cl)[C@H]1O [Vancomycin, vancomycin hydrochloride, reference compound]
MIC [1]: > 64 µM
MIC ([1]; E. faecium E417 HM-965): > 64/— μM
MIC ([1]; E. faecium E1071 NR-28978): > 64/— μM
MIC ([1]; E. faecium HM 968 Strain ERV102): > 64/— μM
MIC ([1]; E. faecium NR31914 Strain E0120): > 64/— μM
biofilm mass reduction [2]: not significantly decreased
MIC [3]: > 64 µM
MIC ([3]; E. faecalis ERV103 HM-934): > 64/— μM
MIC ([3]; E. faecalis NR31972 Strain SF 28073): > 64/— μM
MIC ([3]; E. faecalis S613 HM-334): > 64/— μM
MIC ([3]; E. faecalis TX0104 HM-201): > 64/— μM
MBC (Mycobacterium smegmatis): 16 µM
MIC (Mycobacterium smegmatis): 2 µM
MBC (B. licheniformis; NCIB9375): 2 µM
MIC (B. licheniformis; NCIB9375): < 0.5 µM
MBC (B. licheniformis; NRS712): < 0.5 µM
MIC (B. licheniformis; NRS712): < 0.5 µM
MBC (B. cereus; B. cereus BAG1O-2 NR-28582): < 0.5/< 0.5 μM
MIC (B. cereus; B. cereus BAG1O-2 NR-28582): < 0.5/< 0.5 μM
MBC (B. cereus; B. cereus BAG1X1-1 NR-28575): < 0.5/< 0.5 μM
MIC (B. cereus; B. cereus BAG1X1-1 NR-28575): < 0.5/< 0.5 μM
MBC (B. cereus; B. cereus G9241 NR-9564): < 0.5/< 0.5 μM
MIC (B. cereus; B. cereus G9241 NR-9564): < 0.5/< 0.5 μM
MBC (B. cereus; B. cereus VD014 NR-22141): < 0.5/< 0.5 μM
MIC (B. cereus; B. cereus VD014 NR-22141): < 0.5/< 0.5 μM
MBC (B. cereus; B. cereus VD115 NR-22148): < 0.5/< 0.5 μM
MIC (B. cereus; B. cereus VD115 NR-22148): < 0.5/< 0.5 μM
MBC (B. cereus; B. cereus VD148 NR-22150): < 0.5/< 0.5 μM
MIC (B. cereus; B. cereus VD148 NR-22150): < 0.5/< 0.5 μM
MBC (B. cereus; Bacillus cereus, B. cereus BAG1X2-1 NR-28578, read-out: MBC): < 0.5 µM
MIC (B. cereus; Bacillus cereus, B. cereus BAG1X2-1 NR-28578, read-out: MIC): < 0.5 µM
MBC (B. cereus; Bacillus cereus, NRS201, B. cereus NRS 201 NR-2488, read-out: MBC): < 0.5 µM
MIC (B. cereus; Bacillus cereus, NRS201, B. cereus NRS 201 NR-2488, read-out: MIC): < 0.5 µM
MIC50 [4]: > 64 µM
MIC90 [4]: > 64 µM
MBC [5]: > 64 µM
MIC50 [5]: > 64 µM
MIC90 [5]: > 64 µM
MIC ([5]; VRSA 1): > 64 µM
MIC ([5]; VRSA 2): > 16 µM
MIC ([5]; VRSA 3a): > 16 µM
MIC ([5]; VRSA 3b): > 16 µM
MIC ([5]; VRSA 4): > 64 µM
MIC ([5]; VRSA 5): 64 µM
MIC ([5]; VRSA 6): > 64 µM
MIC ([5]; VRSA 7): > 64 µM
MIC ([5]; VRSA 8): > 64 µM
MIC ([5]; VRSA 9): > 64 µM
MIC ([5]; VRSA 10): > 64 µM
MIC ([5]; VRSA 11a): > 64 µM
MIC ([5]; VRSA 11b): > 64 µM
MIC ([5]; VRSA 12): > 64 µM
MIC ([5]; VRSA 13): > 64 µM
MIC (MRSA USA300): 0.5 µM
MIC50 (Bacillus Strains): < 0.5 µM
MIC90 (Bacillus Strains): < 0.5 µM
MIC (Clostridium difficile; C. difficile HM-88): 0.5 µM
MIC (Clostridium difficile; C. difficile HM-745): 0.125 µM
MIC (Clostridium difficile; C. difficile HM-746): 0.25 µM
MIC (Clostridium difficile; C. difficile Isolate-1 NR-13427): 1 µM
MIC (Clostridium difficile; C. difficile Toxigenic Strain P8 NR-32888): 0.5 µM

— paper PMC5053523, “In Vitro Antibacterial Activity of Rhodanine Derivatives against Pathogenic Clinical Isolates” (PLoS ONE, 2016)
